Measurements from PMC12677699, “Utilizing Proteolytic‐Resistant Nano‐Short Peptide Based on Naphthyl Tail‐Anchored to Combat Bacterial Infections” (Advanced Science, 2025).
≈ marks a conversion by molar mass, not a printed value. Non-standard residues stand in square brackets, D forms with d. Residues, ends and D or L forms follow the SMILES beside them. ξ: configuration not given here. ξAhp(2) = CCCCCC(N)C(=O)O

Assays:
E. faecalis 29212 = assay type: cell-based, Enterococcus faecalis
Experimental: (§1) The MIC values of the nano‐short peptides were determined according to standard protocols.^[ [63] ^] Bacterial strains were revived from cryopreservation and cultured in Mueller–Hinton broth (MHB) to logarithmic growth phase, then diluted to a final density of 0.5–1 × 10⁶ CFU mL^−1. Serial dilutions of the nano‐short peptides were prepared in 0.2% bovine serum albumin (BSA) using a 96‐well plate format. Equal volumes of peptide solutions and bacterial suspensions were combined and incubated at 37 °C for 20–22 h. Bacterial growth was assessed by measuring absorbance at 492 nm, with MHB alone (negative control) and untreated bacterial suspension (positive control) included for reference.

E. coli 078 = assay type: cell-based, Escherichia coli
Experimental: as §1

E. coli UB1005 = assay type: cell-based, Escherichia coli
Experimental: as §1

E. coli 25922 = assay type: cell-based, Escherichia coli
Experimental: as §1

S. aureus ATCC 29213 = assay: Intracellular ATP determination; assay type: cell-based, Staphylococcus aureus; conditions: 16 × 10^−6 M, S. aureus ATCC 29213, 1 h, 37 °C; n = 3
Experimental: (§2) The intracellular ATP levels of E. coli ATCC 25922 and S. aureus ATCC 29213 after nano‐short peptides treatment were detected using an Enhanced ATP Assay Kit.^[ [59] ^] Logarithmic growth stage E. coli ATCC 25922 and S. aureus ATCC 29213 bacterial solutions were diluted to OD600 = 0.4 in MHB liquid medium. Then, the bacterial dilutions were co‐incubated with different concentrations of nano‐short peptides at 37 °C for 1 h. After incubation, the bacterial dilutions were centrifuged (12 000 rpm, 5 min, 4 °C) to pellet the cells. The resulting bacterial pellets were processed according to the steps in the kit. Finally, the chemiluminescence was detected by a microplate reader.

E. coli ATCC 25922 [1] = assay: Outer membrane permeability, NPN; assay type: cell-based, Escherichia coli; conditions: n = 3
Experimental: The NPN fluorescent probe was used to assess the permeability of the outer membrane.^[ [29] ^] A logarithmic phase culture of E. coli ATCC 25922 bacterial solution was diluted to OD600 = 0.2 in a 5 × 10^−3 M HEPES buffer (pH = 7.4 with 5 × 10^−3 M glucose). Following the addition of NPN (final concentration: 10 × 10^−6 M), the mixture was incubated for 30 min in the dark. Subsequently, the bacterial suspension was mixed with an equal volume of nano‐short peptides solution at different concentrations. Polymyxin B (10 µg mL^−1) was used as a positive control, while an untreated bacterial dilution served as the negative control. Fluorescence intensity was measured (excitation λ = 350 nm, emission λ = 420 nm) using a microplate reader. The percentage of outer membrane permeability was calculated as: Permeability% = [(F treated – F negative control)/(F positive control – F negative control)] × 100%.

E. coli ATCC 25922 [2] = assay: Drug resistance assay, 30 serial passages; assay type: cell-based, Escherichia coli; conditions: E. coli ATCC 25922, 30 successive passages at sub-MIC concentrations
Experimental: The potential resistance development of nano‐short peptides was evaluated through 30 serial passages of E. coli ATCC 25922 and S. aureus ATCC 29213 in sub‐MIC conditions,^[ [38] ^] using gentamicin as control.

ICR female mice = assay: In vivo toxicity of N4; set-up: species or system mouse
Experimental: Animal experiments were conducted in accordance with the Guide for the Care and Use of Laboratory Animals at Northeast Agricultural University (NEAU‐[2011]‐9). The experimental subjects comprised female ICR mice, aged 6 to 8 weeks and weighing 19 ± 1.1 g, sourced from Liaoning Changsheng Biotechnology Co. Thirty‐two mice were randomly divided into four groups after a 3‐day pre‐feeding period, followed by intraperitoneal injections of N4 at different doses (5, 10, and 20 mg kg^−1) to assess its toxicity, with saline treatment serving as the control group. Following injection, behavioral alterations were observed over a brief duration (0.5, 1, 4, and 8 h), and then body weight changes were monitored for 3 days. On the third day, the mice were euthanized via ether inhalation anesthesia, and blood samples were collected from the orbital vein for biochemical analysis, which was used to determine the levels of ALT, ALP, BUN, CREA, and TBIL. Subsequently, the liver, spleen, and kidneys were taken to determine organ coefficients. The relative organ weights were calculated using the formula: relative organ weight (%) = (organ weight/mouse body weight) × 100%. These organs were then fixed in 4% paraformaldehyde, following established protocols, for subsequent histological examination.^[ [70] ^]

E. coli = assay: In vivo peritonitis-sepsis model; set-up: species or system mouse; conditions: 14 h, n = 8
Experimental: The mice used in the peritonitis‐sepsis model were consistent with those employed in the in vivo toxicity assessment. Twenty‐four mice were randomly divided into three groups after a 3‐day pre‐feeding period. The mice in the control group received intraperitoneal injections of 100 µL of saline, followed by an additional 100 µL of saline 1 h later. The mice in the other two groups were administered intraperitoneal injections of 100 µL of a saline‐diluted E. coli suspension (OD600 = 0.6), and subsequently received either 100 µL of saline (E. coli‐infected group) or 10 mg kg^−1 of N4(N4‐treated group) 1 h later. 14 h post‐infection, the mice were euthanized via ether inhalation anesthesia, and blood samples were collected from the orbital vein for the analysis of inflammatory factors (IL‐1β, IL‐6, TNF‐α, and IL‐10).^[ [71] ^] In addition, peritoneal fluid was aseptically collected via peritoneal lavage with sterile saline. The liver, spleen, and kidneys were harvested, weighed, and homogenized. Homogenized samples were plated on Mueller‐Hinton agar (MHA) solid medium for overnight incubation, and bacterial load was quantified the next day. Sections of the liver, spleen, and kidneys were obtained for histological analysis employing H&E staining. Besides, the spleens were specifically selected for immunofluorescence analysis to assess the expression levels of IL‐10, TNF‐α, CD206, and CD86.

E. coli ATCC 25922 [3] = assay: Intracellular ATP determination; assay type: cell-based, Escherichia coli; conditions: 16 × 10^−6 M, E. coli ATCC 25922, 1 h, 37 °C; n = 3
Experimental: as §2

[4] = 5, 10, 20 mg kg^−1 intraperitoneal, day 3, p > 0.05, n = 8
[5] = N4 10 mg kg^−1 i.p., vs infected group, p < 0.05

Row | Structure (SMILES) | MIC, E. faecalis 29212 (E. faecalis 29212) | MIC, E. coli 078 (E. coli 078) | MIC, E. coli UB1005 (E. coli UB1005) | MIC, E. coli 25922 (E. coli 25922) | ATP levels decreased to (S. aureus ATCC 29213) | outer membrane disruption compared to polymyxin B (E. coli ATCC 25922 [1]; 8 × 10^−6 M) | outer membrane disruption compared to polymyxin B (E. coli ATCC 25922 [1]; 16 × 10^−6 M) | increase in MIC values after serial passage (E. coli ATCC 25922 [2]) | clinical signs (ICR female mice; 20 mg kg^−1 intraperitoneal, ICR female mice, only two mice, within 1 h, n = 8) | body weight vs control group (ICR female mice; 5, 10, 20 mg kg^−1 intraperitoneal, 3 days, p > 0.05, n = 8) | histopathology of liver, spleen, kidney (H&E) (ICR female mice; 5, 10, 20 mg kg^−1 intraperitoneal, day 3) | levels of ALT, ALP, BUN, CREA and TBIL vs control group (ICR female mice; [4]) | relative weights of the liver, spleen, and kidney (ICR female mice; [4]) | bacterial load, kidney (E. coli; E. coli peritonitis-sepsis, N4 10 mg kg^−1 i.p. 1 h after infection, infected group 6.62) | bacterial load, liver (E. coli; E. coli peritonitis-sepsis, N4 10 mg kg^−1 i.p. 1 h after infection, infected group 6.87) | bacterial load, spleen (E. coli; E. coli peritonitis-sepsis, N4 10 mg kg^−1 i.p. 1 h after infection, infected group 6.97) | bacterial load, peritoneum (E. coli; E. coli peritonitis-sepsis, N4 10 mg kg^−1 i.p. 1 h after infection, infected group 7.48) | serum levels of anti-inflammatory cytokine IL-10 (E. coli; [5]) | serum levels of pro-inflammatory cytokines (IL-1β, IL-6, TNF-α) (E. coli; [5]) | ATP levels decreased to (E. coli ATCC 25922 [3])
1 | CCCCCC(N)C(=O)NC(CCCCC)C(=O)NC(CCCCC)C(=O)NC(CCCCC)C(=O)N[C@H](CCCNC(=N)N)C(=O)N[C@@H](CCCNC(=N)N)C(=O)N[C@@H](CCCNC(=N)N)C(=O)N1CCC[C@H]1C(=O)O (stereo partly drawn) [Peptide B4] (H-[ξAhp(2)][ξAhp(2)][ξAhp(2)][ξAhp(2)][dR]RRP-OH; N-terminus assumed) | 32 µM (≈ 35 µg/mL) | 16 µM (≈ 17.5 µg/mL) | 8 µM (≈ 8.74 µg/mL) | 16 µM (≈ 17.5 µg/mL) | 71.18% | 37.37% | 57.94% |  |  |  |  |  |  |  |  |  |  |  |  | 
2 | N=C(N)NCCC[C@H](NC(=O)[C@@H](CCCNC(=N)N)NC(=O)[C@H](Cc1cccc2ccccc12)NC(=O)[C@H](Cc1cccc2ccccc12)NC(=O)[C@H](Cc1cccc2ccccc12)NC(=O)[C@@H](N)Cc1cccc2ccccc12)C(=O)N[C@@H](CCCNC(=N)N)C(=O)N1CCC[C@H]1C(=O)O (stereo in doubt) [Peptide N4] | 4 µM (≈ 5.49 µg/mL) | 8 µM (≈ 11 µg/mL) | 4 µM (≈ 5.49 µg/mL) | 8 µM (≈ 11 µg/mL) | 10.8% | 92.06% | 108.41% | remained largely unchanged | mild and transient symptoms | no significant differences | did not inflict histopathological damage | no significant differences | remained comparable | 5.96 log10 CFU g^−1 | 6.07 log10 CFU g^−1 | 6.28 log10 CFU g^−1 | 6.37 log10 CFU | increased | significant decreased | 66.07%
